Earlier results on one molecule are cited in patent publication EP1587517B1, “ANTI-PROTOZOAL COMPOSITIONS COMPRISING DICLAZURIL” (JANSSEN PHARMACEUTICA N.V., priority 2003, dated 2004).

Converted amounts (≈) assume the structure as drawn. Like-named read-outs stand apart in the source and are kept apart here.

For `N#CC(c1ccc(Cl)cc1)c1c(Cl)cc(-n2ncc(=O)[nH]c2=O)cc1Cl` (stereo not shown) [diclazuril], the solubility is, setting by setting: (N,N-dimethylformamide) 32.6 mg/mL (≈ 80 mM); (dimethyl sulphoxide) 48 mg/mL (≈ 118 mM); (tetrahydrofuran) 8.2 mg/mL (≈ 20.1 mM). Also, the “saturation concentrations in water” value (water) was “below 1 µg/L”.

As usually defined, the solubility is the concentration that dissolves in the medium under given conditions.
